Experimental data as given in patent US20230220047A1, “PEPTIDES FOR TREATMENT OF SEPSIS AND CANCER” (NORWEGIAN UNIVERSITY OF SCIENCE AND TECHNOLOGY (NTNU), priority 2020, published 2023).
“Also recorded” adds a separate entry of the source.

How the values were obtained:
[1] = tested on: JJN-3 multiple myeloma cells; assay type: cell-based, human; conditions: JJN-3, 10 μM
Excerpt: Minor effects on the proliferation of the IH-1 and RPMI 8226 cell lines are seen. […] The number of viable cells was detected based on quantitation of ATP by luminescent signal in correlation to a standard curve prepared for each cell line. Results are based on 3-5 biological replicates for each condition, error bars show standard deviation of mean.
Multiple myeloma cells JJN-3 (DSMZ (Germany) no. ACC 541), ANBL-6 (Cellosaurus accession number CVCL_5425, obtained from Dr Diane Jelinek, Mayo Clinic, Rochester, Minn.), INA-6 (Cellosaurus accession number CVCL_5209, obtained from Dr M. Gramatzki, University of Erlangen-Nurnberg, Erlangen, Germany), RPMI-8226 (ATCC CCL-155), and IH-1 (Cellosaurus accession number CVCL_WZ44, established from the pleural effusion of a myeloma patient by Myeloma research group, IKOM, NTNU, Trondheim, Norway) were grown in RPMI-1640 (Sigma-Aldrich Norway, Oslo, Norway) supplemented with 100 nM penicillin/streptomycin and 10% FCS, and for ANBL-6, IH-1 and INA-6 cells 2 ng/ml recombinant IL-6 (Gibco, Thermo Fisher Scientific, Waltham, Mass., USA). Murine multiple myeloma Vk*MYC cells were obtained from M.D. Leif Bergsagel (Mayo Clinic, Richester, Minn., USA) and cultured in RPMI-1640 supplemented with 2% human serum (B^+, The blood bank, St Olav's Hospital, Trondheim, Norway), 100 nM penicillin/streptomycin, L-Glutamine (2 mM) and recombinant IL-6 (1 ng/ml). HEK293T (ATCC CRL-3216) were cultured in DMEM with 10% FCS. THP-1 TRAM knockout (KO) and TLR4 KO cell lines, and matching lentivirally transduced control cell lines, were differentiated in the same way as wild type (WT) THP-1. TRAM KO THP-1 cell line is described in Yurchenko et al. (supra).
To evaluate the potential impact of the P7 peptide on proliferation of tumour cells of lymphoid origin, we performed a CellTiter-Glo Luminescent Cell Viability Assay to address proliferation of several multiple myeloma (MM) cell lines. […]

[2] = tested on: THP-1 TRAM KO cells; test: qPCR of LPS-mediated cytokine expression in THP-1 TRAM KO cells; assay type: cell-based, human; conditions: 10 μM, LPS 100 ng/ml 2 or 4 h
Description: Control THP-1 CRISPR cells and TRAM KO cells were pre-treated with 10 μM peptides—control peptides with amino acid substitutions (C3-Pen) or TRAM-targeting peptide Pep7-Penetratin (P7-Pen)—for 30 min before stimulation with LPS (100 ng/ml) for 2 or 4 h. Cells were lysed with Qiazol, followed by RNA isolation and quantitative PCR analysis of cytokine mRNA expression.
In human cells (THP-1 cell line) TRAM expression was not required for TLR4-mediated IL-1β or TNF expression in response to LPS or E. coli particles (FIG. 21, lower panels). P7-Pen was as effective in reducing expression of pro-inflammatory cytokines in THP-1 TRAM KO cells as in control cells (FIG. 22).

[3] = tested on: Jurkat cells; test: Proliferation of Jurkat T cell leukaemia cells; assay type: cell-based, human; conditions: 15 μM or 20 μM, 48 h
Description: Jurkat cells were seeded at 5000 cells/well (as indicated by dotted line) and incubated in medium supplemented with water, penetratin, P7-Pen or P7-N4-Pen. Peptides were included at 15 μM (A) or 20 μM (B). Cells were incubated for 48 hours then counted. […] Results are based on 3 biological replicates, error bars show standard deviation of mean.
SW480 (ATCC CCL-228) and Jurkat (ATCC Clone E6-1; TIB-152) cells were cultured in RPMI 1640 (Sigma-Aldrich, Schnelldorf, Germany) supplemented with 10% heat-inactivated FCS, penicillin/streptomycin (Life Technologies) and 20 mM L-Glutamine. THP-1 cells (ATCC TIB-202) were cultured in RPMI-1640 (high-glucose, ATCC) supplemented with 10% heat inactivated foetal calf serum (FCS), 100 nM penicillin/streptomycin and 5 μM β-mercaptoethanol (Sigma). THP-1 cells were differentiated with 60 ng/ml phorbol 12-myristate 13-acetate (PMA, Sigma) for 72 h, followed by 24 or 48 h in medium without PMA.
The peptides were tested against the SW480 cell line in the presence and absence of LPS.

[4] = tested on: TLR4; test: Primary human macrophages stimulated with LPS: cytokine mRNA and p38 MAPK phosphorylation; assay type: cell-based; conditions: primary human macrophages (data not shown)
Description: Primary human macrophages (PBMC derived, differentiated in media with 10% human serum and M-CSF 20 ng/ml, 7 days) were stimulated with K12 LPS (100 ng/ml), FSL-1 (100 ng/ml) or CL075 (3 μg/ml). […] (B) qPCR for mRNA expression of IFNβ, IL-6, TNF and IL-1β, average for three biological replicates, error bars ±SD.
The effect of P7-Pen on TLR2-mediated pro-inflammatory cytokine expression was investigated.

[5] = tested on: STAT1; test: Western blot of STAT1 phosphorylation in LPS-stimulated THP-1 cells; assay type: cell-based, human; conditions: LPS
Description: Protein pellets were dissolved by heating protein pellets for 10 min at 95° C. in buffer containing 4 M urea, 1 SDS (Sigma) and NuPAGE® LDS Sample Buffer (4×) (Thermo Fisher Scientific). Otherwise, lysates were made using 1× RIPA lysis buffer (150 mM NaCl, 50 mM TrisHCl (pH 7.5), 1% Triton X100, 5 mM EDTA, protease inhibitors, phosphatase inhibitors). For Western blot analysis we used pre-cast protein gels NuPAGE™ Novex™ and iBlot Transfer Stacks iBlot Gel Transfer Device (Thermo Fisher Scientific). Proteins were transferred to the membrane by dry-blotting using iBlot® 2 NC Regular/Mini Stacks (Life Technologies) in the iBlot 2 Dry Blotting System (Life Technologies). After secondary antibody incubation, membranes were washed and incubated with HRP substrate solution (SuperSignal™ West Femto Maximum Sensitivity Substrate (Thermo Fisher Scientific)). Images were taken using Odyssey® Fc (LI-CORE). Quantification graphs were generated by the analysis of signal intensities for protein bands (protein of interest and endogenous loading control—β-tubulin from the same membrane) using Odyssey software (LI-CORE). Data were normalised to the expression levels of β-tubulin and presented as a relative fold change to the control sample.

## Ac-ITVAASVTLTGRQIKIWFQNRRMKWKK-NH2 [Peptide P7-A4-Pen]
[1]; 48 h
  cell proliferation: strongly inhibited cell proliferation
[1]; 48 h (LDH assay not shown)
  cell death: induced cell death

## Ac-ITVYASVTLTGRQIKIWFQNRRMKWKK-NH2 [Peptide P7-Pen]
[2]
  reducing expression of pro-inflammatory cytokines in THP-1 TRAM KO cells versus control cells: as effective
[3]
  effect on proliferation of Jurkat cells: possible anti-proliferative effect; also recorded: clear anti-proliferative effect
[4]
  TLR4-mediated expression of TNF, IL-6 and IL-1β mRNA: totally abrogated

## Ac-ITVYASVTLTGRRRRRRRRRRR-NH2 [Peptide P7-Arg11]
[5]; 10 μM
  phosphorylation of STAT1: strongly inhibited
[5]; 20 μM
  phosphorylation of STAT1: fully abrogated
